# In patent US10653688B2, “6-(6-membered heteroaryl and aryl)isoquinolin-3-yl carboxamides and preparation and use thereof” (Samumed, LLC, priority 2017, dated 2020):
# Where two headings read alike, the source gives them in different places.
# Experiments:
# [1] = test system: Wnt activity (SW480 colon carcinoma cells stably expressing the Sp5-Luc reporter gene); assay: Wnt activity screening assay (Sp5-Luc reporter gene assay); format: cell-based, human; conditions: Homo sapiens; for EC50: 36 to 48 hours; for inhibition at 10 µM: read-out: percent inhibition at 10 μM (given for EC50 >10 μM), 10 μM
# Outline: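 SW480 colon carcinoma cells stably carrying a lentiviral luciferase reporter driven by an Sp5 promoter with eight TCF/LEF sites, plated at 4,000 cells/well in DMEM with 1% FBS. Compound exposure for 36–48 h at 37 °C, then luminescence read. Signals normalized to DMSO; EC50 from four-parameter nonlinear fit.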
# [2] = test system: LL29 cells (primary human fibroblasts derived from IPF patients), α-smooth muscle actin; assay: Inhibition of fibrotic process: TGF-β1-treated primary human fibroblasts, αSMA staining; format: cell-based; conditions: Homo sapiens, Fibroblast; for EC50: 96 h, TGF-β1 20 ng/mL, 4 days, % cells positive for αSMA; for inhibition at 10 µM: read-out: percent inhibition at 10 μM (given for EC50 >10 μM), TGF-β1, αSMA, 10 μM;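 on all read-outs here: controls were TGF-β1-stimulated wells with DMSO vehicle as the positive reference and cells given DMSO alone as the negative reference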
# [3] = test system: secreted cytokines TNFα, IL-6 and KC-GRO in BV-2 cells (mouse microglial cells); assay: Secreted cytokines in lipopolysaccharide-stimulated mouse glial cell line; format: cell-based; conditions: LPS 250 ng/mL 5 hours, table does not say which cytokine
# Outline: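 BV-2 cells seeded at 35,000/well were pretreated overnight with compound (10 μM to 4.6 nM final), then stimulated 5 h with 250 ng/mL E. coli O111:B4 LPS. Supernatant TNFα, IL-6 and KC-GRO were quantified by electrochemiluminescence against standard curves (pg/mL) to fit EC50. Cytotoxicity was checked by CellTiter-Glo ATP read-out.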
# [4] = test system: IL-6 in human peripheral blood mononuclear cells (huPBMCs); assay: IL-6 inhibition in LPS-stimulated human peripheral blood mononuclear cells (HTRF); format: cell-based; conditions: Homo sapiens, PBMC; for EC50: LPS 50 ng/mL, 22 hours, IL-6 HTRF; for inhibition at 10 µM: read-out: percent inhibition at 10 μM (given for EC50 >10 μM), LPS, IL-6, 10 μM
# Outline: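 Fresh normal human PBMCs at 1×10e6 cells/mL in RPMI with 1% FBS received compound, then 50 ng/mL E. coli 0111:B4 LPS 2 h later, and were incubated a further 22 h at 37° C. IL-6 read by HTRF (665/620 nm ratio), normalized to DMSO; EC50 from 4-parameter fit.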
# [5] = target: recombinant DYRK1A kinase (Homo sapiens (Human), UniProt Q13627); assay: DYRK1A kinase assay (Ser/Thr 18 peptide Z-lyte, FRET)
# Protocol: Each compound was dissolved in DMSO as a 10 mM stock and used to prepare compound source plates.
# This is a non-radioactive assay using fluorescence resonance energy transfer (FRET) between coumarin and fluorescein to detect kinase activity which is represented as a ratio of coumarin emission/fluorescein emission.
# The mixture was allowed to incubate with the representative compounds for one hour at room temperature. All reactions were performed in duplicate. Unphosphorylated (“0% Control”) and phosphorylated (“100% control”) forms of Ser/Thr 18 served as control reactions. Additionally, an 11-point dose-response curve of Staurosporine (luM top) was run to serve as a positive compound control.
# After incubation, Development Reagent A was diluted in Development Buffer then added to the reaction and allowed to further incubate for one hour at room temperature.
# Dose-response curves were generated and inhibitory concentration (IC50) values were calculated using non-linear regression curve fit in the Dotmatics' Studies Software (Bishops Stortford, UK).
# [6] = test system: pT212Tau in Dyrk1a- and MAPT-overexpressing HEK293T cells; assay: Tau phosphorylation at Threonine 212 (pT212Tau) sandwich ELISA in double transfected cells; conditions: Homo sapiens, HEK-293T, read-out: Thr212 EC50 (μM)
# [7] = DYRK1A kinase, head says EC50, method says IC50, ATP 30 μM
SMILES,EC50 [1] [nM],inhibition at 10 µM [1] [%],EC50 [2] [nM],EC50 [3] [nM],EC50 [4] [nM],inhibition at 10 µM [4] [%],"EC50 [5, 7] [nM]",EC50 [6] [µM],inhibition at 10 µM [2] [%],EC50 [5] [nM]
"CN1CCN(CC(=O)Nc2cc3cc(-c4cccnc4)c(F)cc3cn2)CC1 [Compound 145, N-(7-Fluoro-6-(pyridin-3-yl)isoquinolin-3-yl)-2-(4-methylpiperazin-1-yl) acetamide]",> 10000,26.2,6520,157,> 10000,5.9,13,0.81,–,–
"Cc1cncc(-c2ccc3cnc(NC(=O)CN4CCOCC4)cc3c2)c1 [Compound 146, N-(6-(5-Methylpyridin-3-yl)isoquinolin-3-yl)-2-morpholinoacetamide]",> 10000,38.5,> 10000,201,> 10000,0,9,0.054,23.8,–
"COc1cncc(-c2ccc3cnc(NC(=O)CN4CCOCC4)cc3c2)c1 [Compound 147, N-(6-(5-Methoxypyridin-3-yl)isoquinolin-3-yl)-2-morpholinoacetamide]",> 10000,38.8,> 10000,628,> 10000,14.7,20,0.147,24.4,–
"[2H]C1([2H])OC([2H])([2H])C([2H])([2H])N(CC(=O)Nc2cc3cc(-c4cccnc4)ccc3cn2)C1([2H])[2H] [Compound 151, 2-(Morpholino-d8)-N-(6-(pyridin-3-yl)isoquinolin-3-yl)acetamide]",> 10000,10.7,> 10000,198,> 10000,6,–,0.009,21.2,13
